Square brackets hold non-standard residues; d marks the D form. Peptide text beside a SMILES is read from it. Sar = CNCC(=O)O
How the values were obtained:
[1] = other pharmacological studies (cardiovascular, CNS, anti-inflammatory, diuretic); type: in vivo; conditions: up to a dose of 10 mg/kg
[2] = system: Sensitised mast cells (Immunological: Egg albumin); experiment: mast cell degranulation by egg albumin in sensitised mast cells; type: in vivo, rats; conditions: dose 50.0 pro (10.0 x 5 d) mg/kg x days
[3] = system: Normal mast cells (Noninnunological: Comp. 48/80); experiment: mast cell degranulation by comp 48/80 in normal mast cells; type: in vivo, rats; conditions: dose 50.0 pro (10.0 x 5 d) mg/kg x days
[4] = system: Egg-albumin; experiment: aerosol test, egg-albumin challenge in sensitised guinea pigs; type: in vivo; conditions: dose 50 mg/kg (ip)
[5] = system: passive cutaneous anaphylaxis (PCA); experiment: passive cutaneous anaphylaxis (PCA) test in rats; type: in vivo
[6] = system: sensitised guinea pig ileum; experiment: antigen (egg albumin) induced contraction of sensitised guinea pig ileum (Schultz-Dale phenomenon)

SMILES	cardiovascular, Central Nervous System (CNS), anti-inflammatory, diuretic activities [1]	% Protection [2] [%]	% Protection [3] [%]	% Protection Egg-albumin [4] [%]	anti PCA activity ([5]; rat, 50 mg/kg by nasal route) [%]	% Anti-PCA activity ([5]; rats, dose 50.0 mg/kg (IP)) [%]	% Protection to ileum contraction induced by egg albumin ([6]; concentration 1.0 (unit not given))	% Protection to ileum contraction induced by egg albumin ([6]; concentration 2.0 (unit not given)) [%]	% Protection to ileum contraction induced by egg albumin ([6]; concentration 3.0 (unit not given)) [%]
C[C@H](N)C(=O)NCC(=O)NCC(=O)N[C@@H](CC(=O)O)C(=O)N(C)CC(=O)N[C@@H](CCCCN)C(=O)O [96/199, L-alanyl-glycyl-glycyl-L-aspartyl-sar-L-1ys] (H-AGGD[Sar]K-OH)	No significant effects	–	–	–	–	–	–	–	–
O=C([O-])c1cc(=O)c2c(OCC(O)COc3cccc4oc(C(=O)[O-])cc(=O)c34)cccc2o1.[Na+].[Na+] [DSCG, disodium cromoglycate]	–	71	72	64	81	77	No block	18	59
